The results in this text go back to patent US20190125735A1, “INHIBITION OF P38 MAPK FOR THE TREATMENT OF CANCER” (Board of Regents, The University of Texas System, priority 2015, published 2019).

“Also recorded” adds a separate entry of the source. Bounds are passed on as bounds.

The test system of one assay is ZEB1. The assay is described as follows: ZEB1 mRNA and protein levels (qRT-PCR, immunoblotting). It is filed as cell-based, human. The text has this:
First, the elevated levels of FOXC2 and ZEB1 transcripts were confirmed in HMLER-FOXC2 cells versus HMLER-vector cells by qRT-PCR (FIG. 19A). […] Accordingly, shRNA-mediated suppression of FOXC2 in a panel of cell lines yielded a >50-fold decrease in ZEB1 mRNA (FIG. 19E) and a >80% reduction in ZEB1 protein levels (FIG. 19F). […] Conversely, a >50-fold increase as found in miR-200b, and a >1000-fold increase in miR-200c, following FOXC2 knockdown compared to control shRNA-transduced counterparts (FIG. 19H). To ascertain whether FOXC2 directly regulates miR-200 or ZEB1 expression, the promoter regions of both miR-200 clusters on chromosomes 1 and 12 as well as the ZEB1 promoter were analyzed, and a conserved FOXC2-binding element within the ZEB1 promoter was identified. […] Furthermore, in support of the notion that p38-mediated phosphorylation of FOXC2 regulates ZEB1 expression, elevated ZEB1 protein levels were only detected in HMLER-FOXC2 and HMLER-FOXC2(S367E) cells (FIG. 19L, lanes 2 and 3), but not in HMLER-FOXC2(S367A) cells (FIG. 19L, lane 4).
Immunoblotting and immunofluorescence (Mani et al., 2008) were performed as previously described. Primary antibodies were as follows: β-actin (Sigma, St Louis, Mo., USA; A3853), mouse anti-human FOXC2 (Dr. Naoyuki Miura, Hamamatsu University School of Medicine, Japan), goat polyclonal anti-FOXC2 (Santa Cruz Biotechnology, Dallas, Tex., USA; sc-21397), p-p38 (Cell Signaling, Danvers, Mass., USA; 4511), p38 (Cell Signaling; 9211), E-cadherin (BD Biosciences, San Jose, Calif., USA; 61081), fibronectin (BD Biosciences; 610077), vimentin (Novus Biologicals, Littleton, Colo., USA; NB200-623), ZEB1 (Novus Biologicals; NBP1-05987), and HA (Covance, Princeton, N.J., USA; MMS-101P).
(§1) qRT-PCR was performed using SYBR Green (Applied Biosystems, Waltham, Mass., USA) for mRNAs and Taqman (Applied Biosystems) for microRNAs as described previously (Hollier et al., 2013).

The subject of a further assay is FOXC2. Kind of assay: FOXC2 transcript levels by qRT-PCR. The following applies: treated vs vehicle. It is filed as cell-based, human. The protocol: as §1
Assay [1] concerns HMLE-Snail, HMLE-Twist, MDA-MB-231 and SUM159 cells. The assay is described as follows: FACS CD44high/CD24low of mesenchymal mammary cells. It counts as cell-based, human. The settings on record: relative to vehicle-treated cells. As to the method:
It was next ascertained whether p38 inhibition compromises the maintenance of the established EMT phenotype.
Quantification of invadopodia (Eckert et al., 2011), scratch/wound-healing assays (Sarkar et al., 2015) fluorescence-activated cell sorting (FACS), and sphere-formation assays (Mani et al., 2008) were conducted as described previously.

Another assay deals with HMLER cells. The assay is described as follows: Sphere formation of HMLER cells expressing FOXC2 variants. It counts as cell-based, human. The protocol:
For this, phosphomimetic FOXC2(S367E) and non-phosphorylatable FOXC2(S367A) mutants were generated and their ability to bestow mesenchymal and stem-cell traits relative to wild-type FOXC2 (referred to as FOXC2) was evaluated.

In assay [2] the test system is DU145 cells. The assay is described as follows: Wound healing assay, DU145 cells. It counts as cell-based, human. The settings on record: DU145, 5 μM, 7 days. The protocol: (§2) Immunoblotting, Immunofluorescence, RTPCR, wound healing- and tumorsphere assays were performed as previously described (Sarkar et al., 2015). Cell viability (MTS) was assessed using the CellTiter96 Aqueous One-Solution Cell Proliferation Assay kit (Promega).

Assay [3] concerns DU145 cells. The assay is described as follows: MTS cell survival assay, DU145 cells. It is filed as cell-based, human. The protocol:
as §2
On the technique in general: Tetrazolium assays rely on reduction of a dye to a coloured formazan, in cell work by metabolically active cells.

In assay [4] the test system is BCR-ABL+ mouse ALL cells seeded on MSCs (OP9 cells). Kind of assay: Clinical compound library screen, imatinib-pretreated MSC / BCR-ABL+ ALL cell co-culture. It is filed as cell-based. The protocol: The effectiveness of the compounds was determined in preventing cluster formation by microscopy and the toxicity of the compounds by bioluminescence imaging of co-cultured MSCs and leukemic cells.
The clinical compounds library was purchased from the John S. Dunn Gulf Coast Consortium for Chemical Genomics (Houston, Tex.). […] Then, luciferase-labeled BCR-ABL+ mouse ALL cells were seeded on to the MSCs. Treatment was continued for 1 day, and the samples were evaluated via phase-contrast microscopy for the formation of leukemic cell clusters underneath the pretreated MSCs. To determine the compounds' toxicity in MSCs or leukemic cells, we examined the MSC/ALL cell co-cultures via microscopy and/or bioluminescence imaging.
Phase-contrast images of co-cultured MSCs and ALL cells were obtained using an Axio Observer.Z1 microscope, an AxioCam MR camera, and AxioVision software (Zeiss, Oberkochen, Germany). For screening, a cluster was defined as a group of more than five leukemic cells under the MSCs. The total number of leukemic cell clusters was the average number of clusters from three different fields (10× objective). For post-screening experiments, a cluster was defined as a group of more than 10 leukemic cells under the MSCs. The total number of leukemic cell clusters was the average number of clusters from 10 different fields (10× objective).

The test system of another assay is BCR-ABL+ mouse ALL cells. The settings on record: MSC co-culture.

As for `C[S+]([O-])c1ccc(-c2nc(-c3ccc(F)cc3)c(-c3ccncc3)[nH]2)cc1` (stereo not drawn) [SB203580, 4-(4-Fluorophenyl)-2-(4-methylsulfinylphenyl)-5-(4-pyridyl) 1H-imidazole], the ZEB1 protein levels result with ZEB1 (HMLER-FOXC2(S367E) cells) is on record as “remained relatively high”; with ZEB1 (HMLER-FOXC2 cells), “decreased”. In addition, the “Reduction of ZEB1 mRNA and protein levels compared to vehicle” value with ZEB1 (SB203580 treatment) is over 60 fold. For the same compound, the FOXC2 transcript levels entry in the assay with FOXC2 is on record as “neither SB203580 nor p38 shRNA had a discernible effect on FOXC2 transcript levels”. In addition, in assay [1], the “Percentage of cells displaying the CD44^high/CD24^low antigenic profile” value was “substantially reduced”. For the same compound, the results for the Sphere-forming capacity result with HMLER cells (HMLER-FOXC2(S367E) cells) and in the assay on HMLER cells (HMLER-FOXC2 cells) were “retained the ability to form spheres even in the presence of SB203580” and “reduced”, respectively. Also, the Migratory potential entry in the assay with DU145 cells [2] was “significant reduction in migratory potential”. In addition, the “Sensitivity of cells to Docetaxel (cell survival)” value with DU145 cells [3] (DU145, SB203580 pre-treatment then co-treatment with SB203580 and Docetaxel) is “significantly resensitized”. Further, in the assay with DU145 cells [3] (DU145, SB203580 pre-treatment then co-treatment with SB203580 and Enzalutamide), the “Sensitivity of cells to Enzalutamide (cell survival)” value is “significantly resensitized”. Besides, the “Imatinib-induced leukemic cell cluster formation” value in assay [4] is given as “directly prevented imatinib-induced leukemic cell cluster formation; also recorded: potently inhibited the formation of imatinib-induced leukemic cell clusters”. Moreover, the “Apoptosis of leukemic cells” value with BCR-ABL+ mouse ALL cells was “did not affect proliferation or apoptosis of leukemic cells”.
